The target in one data set is T1, CYP2A6 (Homo sapiens, UniProt P11509).
T1 sequence (P11509 1-494): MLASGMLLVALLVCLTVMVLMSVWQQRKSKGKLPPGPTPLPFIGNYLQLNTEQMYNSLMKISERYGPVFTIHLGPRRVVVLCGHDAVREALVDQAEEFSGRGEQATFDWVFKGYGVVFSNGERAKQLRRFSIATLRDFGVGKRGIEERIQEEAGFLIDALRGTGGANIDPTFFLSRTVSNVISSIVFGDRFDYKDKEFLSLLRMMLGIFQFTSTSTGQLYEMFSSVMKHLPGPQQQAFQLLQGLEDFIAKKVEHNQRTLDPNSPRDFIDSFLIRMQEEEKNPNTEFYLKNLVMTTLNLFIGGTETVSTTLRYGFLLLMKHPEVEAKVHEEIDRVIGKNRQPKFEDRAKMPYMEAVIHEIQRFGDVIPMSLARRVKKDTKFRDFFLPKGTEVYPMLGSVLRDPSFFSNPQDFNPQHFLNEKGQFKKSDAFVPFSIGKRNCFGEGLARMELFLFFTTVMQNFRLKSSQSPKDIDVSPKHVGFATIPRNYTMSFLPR
The data set can be described thus: Cytochrome P450 isoform inhibition in human hepatic microsomes, coumarin (Example 18). The following applies: positive control 250 μM; VC 32.0 ± 1.4.

For data set [1], the system named is Zucker fatty rats. Put plainly: Short insulin tolerance test in Zucker fatty rats (Example 10). The data set is classed as in vivo. The settings on record: 50 mg/kg/day for 5 days. Here is the method:
(§1) Prior to treatment, rats were assigned to 6 groups based on body weight. Each treatment group consisted of 8 rats. […] The gavage volume was 10 ml/kg. All rats received an oral glucose challenge (1.9 g/kg) 5.5 hours after the treatment and 4 hours after withdrawal of the food. Blood samples were taken at 0, 15, 30, 60, 90, 120, and 180 minutes following the glucose challenge for plasma glucose measurement. […] On day 5, rats received the intravenous insulin (0.75 U/kg) 5.5 hours after the last dose and 4 hours after withdrawal of the food. Blood samples were taken at 3, 6, 9, 12, 15 and 18 minutes following the insulin injection for plasma glucose measurement.

For data set [2], the system named is diabetic ob/ob mice. Put plainly: Time course of glucose-lowering after a single oral dose in ob/ob mice (Example 8). The settings on record: single oral dose 250 mg/kg; for onset and duration of glucose-lowering action, in words: 250 mg/kg. The data set is classed as in vivo.
Data set [3] concerns Zucker Diabetic Fatty rats. Put plainly: Lipid lowering activity in Zucker Diabetic Fatty rats (Example 11). The data set is classed as in vivo. The following applies: ZDF rats; for lowering of plasma triglyceride vs control at 7 days, in words: 37.5 mg/kg/day; for difference in plasma cholesterol between control and treated groups, in words: experiment I, 7 and 13 days. The protocol:
Male Zucker diabetic fatty (ZDF) rats were obtained from GMI Laboratories (Indianapolis, Ind.) at 9 weeks of age. Vehicle or enantiomers of halofenate administered by oral gavage on a daily basis starting at 74 days of age. Initial blood samples were obtained for analysis one day before treatment and at the indicated times in the treatment protocol. Blood was analyzed for plasma triglyceride and cholesterol by standard techniques.

Data set [4] concerns Zucker fatty rats. The data set can be described thus: Oral glucose challenge in Zucker fatty rats (Example 10). In kind it is in vivo. The following applies: racemate 100 mg/kg, enantiomers 50 and 100 mg/kg. Here is the method: as §1
The subject of data set [5] is oxonic acid induced hyperuricemic rats. Put plainly: Plasma uric acid in oxonic acid induced hyperuricemic rats (Example 17). The data set is classed as in vivo. The settings on record: oxonic acid hyperuricemic SD rats, oral 50 mg/kg for 3 days, 100 mg/kg on day 4, 6 hours post gavage. An excerpt:
Male SD rats, weight 275-300 g were purchased from Charles River. […] To establish a hyperuricemic state, animals were put on a diet containing 2.5% (w/w) of oxonic acid (Sigma Chemical Co, St. Louis, Mo., USA) throughout the experiment. Oxonic acid elevates plasma uric acid by inhibiting uricase. Rats were screened for plasma uric acid levels 3 days after they were placed on the diet, and those that had extreme plasma uric acid levels were excluded. Rats were assigned to one of three groups and the mean uric acid levels were equivalent in each group. […] Oxonic acid was delivered in a liquid formulation containing 0.9% (w/v) methylcellulose. The gavage and injection volumes were 5 ml/kg. Blood samples were taken at 6 hours post oral gavage on day 4. Plasma uric acid levels were determined colorimetrically using the Infinity Uric Acid Reagent (Sigma Chemical Co, St. Louis, Mo., USA).

Data set [6] has as its system diabetic ob/ob mice. Put plainly: Glucose and insulin lowering on daily oral administration for 5 days in ob/ob mice (Example 9).
Procedure: Animals were housed (4-5 mice/cage) under standard laboratory conditions at 22° C. and 50% relative humidity, and were maintained on a diet of Purina rodent chow and water ad libitum. Prior to treatment, blood was collected from the tail vein of each animal. Mice that had non-fasting plasma glucose levels between 300 and 520 mg/dL were used. Each treatment group consisted of 10 mice that were distributed so that the mean glucose levels were equivalent in each group as the start of the study. […] The gavage volume was 10 ml/kg. Blood samples were taken at 3, 6, 27, 30 and 120 hour after the first dose and analyzed for plasma glucose and insulin. The animals were fasted overnight (14 hours) before the 120 hours sampling. Plasma glucose concentrations were determined calorimetrically using glucose oxidase method (Sigma Chemical Co, St. Louis, Mo., USA). Plasma insulin concentrations were determined by using the Rat Insulin RIA Kit from Linco Research Inc. (St. Charles, Mo., USA). Significance difference between groups (comparing drug-treated to vehicle-treated) was evaluated using Student unpaired t-test.
A further data set concerns C57BL/6J db/db mice. The data set can be described thus: Prevention of diabetes and alleviation of hypertriglyceridemia in db/db mice (Example 15). In kind it is in vivo. The settings on record: 150 mg/kg/day in chow, 9 weeks; for plasma triglyceride levels with age, in words: 150 mg/kg/day. Here is the method: Blood samples were taken at 8-10 AM once a week for 9 weeks under non-fasting condition. Food intake and body weight were measured every 1-3 days. Plasma glucose and triglyceride concentrations were determined calorimetrically using kits from Sigma Chemical Co (No. 315 and No. 339, St. Louis, Mo., USA). Plasma insulin levels were measured using RIA assay kit purchased from Linco Research (St. Charles, Mo.).

Another data set deals with ZDF rats. The data set can be described thus: Plasma glucose in ZDF rats, (−) versus (+) halofenate (Example 13). The data set is classed as in vivo. The following applies: 50 mg/kg oral once a day for 3 days. The protocol:
Male 8-9 week old ZDF rats were purchased from Genetic Models, Inc. (Indianapolis, Ind.). […] Rats that had 4-hour fasting plasma glucose levels between 200 and 500 mg/dL were used. […] The gavage volume was 5 ml/kg. Blood samples were taken at 5 hours post dose on day 2 and 3.

Where [7] appears, read: 250 mg/kg/day oral, listed as (−) enantiomer, 250 mg/kg/day.

Each structure is given as a SMILES string. Entries after “also recorded” stand apart in the source; their conditions may differ.

Turning to `N[C@@H]1C[C@H]1c1ccccc1` (racemic) [TRAN, tranylcypromine], the “Coumarin 7-HC Production” value on CYP2A6 is 0.00 ± 0.00 pmol/mg protein/min.

As to `CC(=O)NCCOC(=O)C(Oc1cccc(C(F)(F)F)c1)c1ccc(Cl)cc1` (single isomer, unassigned; (-)) [(−) halofenate, (−) 2-acetamidoethyl 4-chlorophenyl-(3-trifluoromethylphenoxy)-acetate], the “insulin sensitivity (slope of decline in glucose after i.v. insulin), in words” value in the data set with Zucker fatty rats [1] is reported as “improved significantly; also recorded: significantly more insulin sensitive”. Also, in the data set on diabetic ob/ob mice [2], the “glucose lowering compared with the (+) enantiomer at 3 hour and 24 hour time points” value was “more effective and significantly different (p<0.05) from the (+) enantiomer”. Further, the “onset and duration of glucose-lowering action, in words” value with diabetic ob/ob mice [2] is “more rapid onset and sustained longer”; in the data set on diabetic ob/ob mice [2] (listed as (−) enantiomer) it was “most rapid onset of action and the longest duration of action”. In data set [3] (12.5 mg/kg/day (Low dose)), the “days of treatment with significant plasma cholesterol decrease vs control” value stood at 7 days. In addition, in data set [3] (37.5 mg/kg/day (High dose)), the “plasma triglyceride levels, in words” value is reported as “lowest triglyceride levels of all the treatment groups”. Further, the “lowering of plasma triglyceride vs control at 7 days, in words” value was “greater magnitude” in data set [3] (37.5 mg/kg/day (High dose), listed as (−) enantiomer of halofenate) and “significant lowering of plasma triglyceride” in data set [3] (37.5 mg/kg/day (High dose), listed as (−) enantiomer). The “plasma cholesterol course during treatment, in words” value in data set [3] (13 days, racemate 50 mg/kg/day, enantiomers 25 mg/kg/day) was “plasma cholesterol declined with treatment”. In addition, in data set [3] (14 days, 37.5 mg/kg/day (High dose)), the “extent of plasma cholesterol lowering, in words” value is reported as “greatest extent of cholesterol lowering”. Besides, the “difference in plasma cholesterol between control and treated groups, in words” value in data set [3] (enantiomers 25 mg/kg/day) was “significant decrease in plasma cholesterol”; in data set [3] (enantiomers 25 mg/kg/day, listed as (−) enantiomer) it was “most active of the species tested”. For the same molecule, in the data set on Zucker fatty rats [4] (single oral dose 5.5 hours before challenge), the “plasma glucose after oral glucose challenge, in words” value is given as “most effective in lowering the glucose; also recorded: greatest degree of glucose-lowering of all the treated animals”. For the same molecule, the “incremental glucose area under the curve (AUC) vs control, in words” value with Zucker fatty rats [4] (single oral dose) is “significant reductions in the glucose area; also recorded: Significant changes (p<0.05)”. In addition, in [5], the “plasma uric acid levels vs vehicle, in words” value is recorded as “significantly reduced plasma uric acid levels”. The “overnight fasting plasma insulin after 5 days, in words” value was “Significantly lower plasma insulins” in the data set with diabetic ob/ob mice [6] (125 mg/kg/day oral, listed as (−) enantiomer, 125 mg/kg/day) and “Significantly lower plasma insulins” in the data set on diabetic ob/ob mice [6] (setting [7]). The “time points with significant plasma glucose reduction vs control” value in the data set with diabetic ob/ob mice [6] (250 mg/kg/day oral, 250 mg/kg/day) is reported as “also active at 3 hours”. The “time points with reduced plasma insulin vs control” value in the data set with diabetic ob/ob mice [6] (setting [7]) was “greatest extent of reduced plasma insulin was noted at 27 and 30 hours”. Further, in the data set with C57BL/6J db/db mice, the “increase of plasma glucose levels with age, in words” value is recorded as “prevented or significantly delayed”. Moreover, the “plasma insulin concentration with age, in words” value in the data set with C57BL/6J db/db mice is reported as “maintained the plasma insulin concentration”. In addition, the “plasma triglyceride levels with age, in words” value is reported as “alleviated hyperlipidemia” in the data set on C57BL/6J db/db mice and “alleviated the increase of plasma triglyceride concentration” with C57BL/6J db/db mice (listed as (−) Halofenate). The “plasma glucose compared to vehicle-treated animals, in words” value in the data set with ZDF rats is listed as “significantly reduced plasma glucose concentrations”.

Values taken from US20040039053A1, “Use of(-) (3-halomethylphenoxy) (4-halophenyl) acetic acid derivatives for treatment of insulin resistance, type 2 diabetes, hyperlipidemia and hyperuricemia” (priority 2000, published 2004).
